Measurements as given in article PMC8058344, “ARIH1 signaling promotes anti-tumor immunity by targeting PD-L1 for proteasomal degradation” (Nature Communications, 2021).
Values joined by “and” are separate entries in the source; they are usually repeats but may differ in a detail not shown here. Identical values can stand only once. Residues, ends and D or L forms follow the SMILES beside them. *: point of attachment. Cbz = O=C(OCc1ccccc1)*

Legend:
PD-L1 in U937 cells = test: PD-L1 levels in U937 cells by western blotting and flow cytometry; type: cell-based, human
Protocol: (§1) Fig. 1 EGFR inhibitors were screened to reduce membrane PD-L1 levels. a High-throughput screening of 2125 FDA-approved drugs or drug candidates. U937 cells were incubated with IFNγ (100 ng/mL) for 48 h, treated with the drugs at 10 μM for 12 h. Ruxolitinib (Rux) was used as a positive control. The hit compounds that induced the decrease of PD-L1 levels are shown in blue. The depth of blue represents decreased level of PD-L1. The heatmap represents the targeted pathways obtained from the high-throughput screening, based upon decreased membrane PD-L1 level detected by flow cytometry. b Immunoblotting of PD-L1 in U937 cells treated with ES-072 (ES) or AZD9291 (AZD) at indicated concentrations for 12 h. ES and AZD are EGFR inhibitors. c, d Median fluorescence intensity (MFI) (c) and relative quantification (d) of PD-L1 in U937 cells treated with 10 μM ES-072 or 10 μM AZD9291 for 12 h. Data represent means ± SEM, n = 18, 6 independent repeats, ****P < 0.0001. e–g Immunoblotting (e, f) and flow cytometry (g) analysis of PD-L1 levels in U937 cells treated with 10 μM ES-072 or 10 μM AZD9291 for the indicated times. h, i Immunoblottings (h) of PD-L1 and β-TrCP, relative quantification (i) of PD-L1 MFI in H1975 cells transfected with non-targeting siRNA (si-CTRL) or β-TrCP siRNAs (si-β-TrCP) and treated with or without 10 μM ES-072/AZD9291 for 12 h. Data represent means ± SEM, n = 9, 3 independent repeats, NS: no significant; ****P < 0.0001. j–l Immunoblotting (j) and flow cytometry analysis (k) with relative quantification (l) of PD-L1 in H1975 cells treated with 10 μM ES-072 or AZD9291, and/or 5 μM LY2090314 (LY) for 12 h. LY is a GSK3 inhibitor. […]
For western blot analysis, cells were collected and washed with PBS, then lysed in radioimmunoprecipitation assay (RIPA) buffer (1% Triton X-100, 100 mM Tris-HCl pH 8.8, 100 mM NaCl, 0.5 mM EDTA). […] The supernatant was collected and the protein concentration was measured by bicinchoninic acid reaction. […] Signals were detected using chemiluminescence reagents (#4AW001-500, 4A649 Biotech, Co.). […]

PD-L1 in H1975 cells = test: PD-L1 levels in H1975 cells by immunoblotting and flow cytometry; type: cell-based, human
Protocol: as §1, with “h.” for “h. LY is a GSK3 inhibitor.”
Fig. 5 GSK3α-mediated phosphorylation of PD-L1 promotes PD-L1-ARIH1 interaction and ARIH1-induced degradation. a Co-IP analysis for the interaction of K48-ubiquitin, ARIH1 (HA), and PD-L1 in HEK293T cells transfected with HA-ARIH1 and Flag-PD-L1 (WT, S279A, S283A, or 2SA), treated with MG132 (10 μM) for 6 h; HA-tagged empty vector (HA-EV) was transfected as a negative control. b Co-IP analysis for the interaction of ARIH1 and PD-L1 in HEK293T cells transfected with HA-ARIH1 and Flag-PD-L1 (WT or 2SA), treated with 10 μM ES-072 for 24 h, Flag-tagged empty vector (Flag-EV) was transfected as a negative control. c HEK293T cells were transfected with Flag-PD-L1. Co-IP analysis for the interaction of ubiquitin and PD-L1 in HEK293T cells transfected with ARIH1-siRNAs or HA-GSK3α and treated with MG132 (10 μM) for 6 h; non-targeting siRNA (si-CTRL) was transfected as a negative control. d Immunoblots of PD-L1 and ARIH1 (HA) in H1975 cells transfected with HA-ARIH1, treated with or without 5 μM LY for 6 h. e, f MFI (e) and relative quantification (f) of PD-L1 in HA-ARIH1-overexpressed H1975 cells, treated with or without 5 μM LY for 6 h. […]

GSK3α = GSK3α (Homo sapiens, UniProt P49840); test: In vitro kinase specificity profiling for GSK3α; type: biochemical
Chain of GSK3α (P49840 whole entry): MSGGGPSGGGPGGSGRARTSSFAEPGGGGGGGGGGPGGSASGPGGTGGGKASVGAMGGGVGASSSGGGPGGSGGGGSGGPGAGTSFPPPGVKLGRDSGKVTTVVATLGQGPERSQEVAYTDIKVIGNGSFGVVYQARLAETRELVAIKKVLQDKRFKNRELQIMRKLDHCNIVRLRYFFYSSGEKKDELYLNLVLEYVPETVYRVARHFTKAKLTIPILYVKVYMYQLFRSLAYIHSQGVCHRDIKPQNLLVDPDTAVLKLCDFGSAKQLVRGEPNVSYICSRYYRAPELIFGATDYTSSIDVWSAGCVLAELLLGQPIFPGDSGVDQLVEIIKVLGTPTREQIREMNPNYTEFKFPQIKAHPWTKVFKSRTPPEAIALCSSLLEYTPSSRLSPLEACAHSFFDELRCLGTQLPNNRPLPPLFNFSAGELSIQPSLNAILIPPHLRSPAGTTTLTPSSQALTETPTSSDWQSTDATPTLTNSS

With `C=CC(=O)Nc1cc(Nc2nccc(-c3cn(C)c4ccccc34)n2)c(OC)cc1N(C)CCN(C)C` [AZD9291, Osimertinib] the “IFNγ-induced membranal PD-L1 levels” value (PD-L1 in U937 cells; western blotting and flow cytometry, 10 μM, 12 h) was “dramatically reduced”.

`CC(C)C[C@@H](C=O)NC(=O)[C@H](CC(C)C)NC(=O)[C@H](CC(C)C)NC(=O)OCc1ccccc1` [MG132] (Cbz-Leu-Leu-Leu-aldehyde) was tested, and the “decrease in the PD-L1 levels induced by ES-072” value (PD-L1 in H1975 cells; H1975 cells, 10 μM ES-072 and 10 μM MG132 for 6 h) was “rescued”.

`N#CC[C@H](C1CCCC1)n1cc(-c2ncnc3[nH]ccc23)cn1` [Ruxolitinib] was tested, and the “IFNγ-induced PD-L1 levels” value (PD-L1 in U937 cells; 100 ng/mL IFNγ 48 h, 10 μM Ruxolitinib 12 h) was “blocked”.

With `O=C1NC(=O)C(c2cnc3ccccn23)=C1c1cn2c3c(cc(F)cc13)CN(C(=O)N1CCCCC1)CC2` [LY2090314] the IC50 (GSK3α; single independent tests) was 980 pM and 810 pM and 840 pM, the IC50 (GSK3α; value with spread given in main text) was 870 ± 90 pM and the “ARIH1-overexpression-induced degradation of PD-L1” value (PD-L1 in H1975 cells; H1975 cells transfected with HA-ARIH1, 5 μM LY for 6 h) was “rescued”. The “reduction of PD-L1 levels induced following EGFR inhibition” value (PD-L1 in H1975 cells; H1975 cells, 5 μM LY2090314 with 10 μM ES-072 or AZD9291, 12 h) was “did block this reduction”.
